Source: PMC8548913, “Piezo1–Pannexin1 complex couples force detection to ATP secretion in cholangiocytes” (The Journal of General Physiology, 2021)

Molecular target: T1, Piezo1 (Mus musculus, UniProt E2JF22)
T1 construct: native full-length channel in primary cultured cholangiocytes (DIV5) from intrahepatic bile duct units; monomer ~290 kD band reported for GFP-tagged protein
Experiment: Fura-2 ratiometric Ca2+ imaging
Format: cell-based
Details: agonist; native DIV5 mouse cholangiocytes, 2.5 mM external Ca2+; Yoda1 without effect in Piezo1-knockout HEK293T cells; read-out: apparent EC50
From the text: Fura-2 ratiometric Ca2+ imaging on Piezo1 | Concentration-response profile for Yoda1 in mouse DIV5 cholangiocytes, yielding apparent EC50

T1 sequence (E2JF22 whole entry): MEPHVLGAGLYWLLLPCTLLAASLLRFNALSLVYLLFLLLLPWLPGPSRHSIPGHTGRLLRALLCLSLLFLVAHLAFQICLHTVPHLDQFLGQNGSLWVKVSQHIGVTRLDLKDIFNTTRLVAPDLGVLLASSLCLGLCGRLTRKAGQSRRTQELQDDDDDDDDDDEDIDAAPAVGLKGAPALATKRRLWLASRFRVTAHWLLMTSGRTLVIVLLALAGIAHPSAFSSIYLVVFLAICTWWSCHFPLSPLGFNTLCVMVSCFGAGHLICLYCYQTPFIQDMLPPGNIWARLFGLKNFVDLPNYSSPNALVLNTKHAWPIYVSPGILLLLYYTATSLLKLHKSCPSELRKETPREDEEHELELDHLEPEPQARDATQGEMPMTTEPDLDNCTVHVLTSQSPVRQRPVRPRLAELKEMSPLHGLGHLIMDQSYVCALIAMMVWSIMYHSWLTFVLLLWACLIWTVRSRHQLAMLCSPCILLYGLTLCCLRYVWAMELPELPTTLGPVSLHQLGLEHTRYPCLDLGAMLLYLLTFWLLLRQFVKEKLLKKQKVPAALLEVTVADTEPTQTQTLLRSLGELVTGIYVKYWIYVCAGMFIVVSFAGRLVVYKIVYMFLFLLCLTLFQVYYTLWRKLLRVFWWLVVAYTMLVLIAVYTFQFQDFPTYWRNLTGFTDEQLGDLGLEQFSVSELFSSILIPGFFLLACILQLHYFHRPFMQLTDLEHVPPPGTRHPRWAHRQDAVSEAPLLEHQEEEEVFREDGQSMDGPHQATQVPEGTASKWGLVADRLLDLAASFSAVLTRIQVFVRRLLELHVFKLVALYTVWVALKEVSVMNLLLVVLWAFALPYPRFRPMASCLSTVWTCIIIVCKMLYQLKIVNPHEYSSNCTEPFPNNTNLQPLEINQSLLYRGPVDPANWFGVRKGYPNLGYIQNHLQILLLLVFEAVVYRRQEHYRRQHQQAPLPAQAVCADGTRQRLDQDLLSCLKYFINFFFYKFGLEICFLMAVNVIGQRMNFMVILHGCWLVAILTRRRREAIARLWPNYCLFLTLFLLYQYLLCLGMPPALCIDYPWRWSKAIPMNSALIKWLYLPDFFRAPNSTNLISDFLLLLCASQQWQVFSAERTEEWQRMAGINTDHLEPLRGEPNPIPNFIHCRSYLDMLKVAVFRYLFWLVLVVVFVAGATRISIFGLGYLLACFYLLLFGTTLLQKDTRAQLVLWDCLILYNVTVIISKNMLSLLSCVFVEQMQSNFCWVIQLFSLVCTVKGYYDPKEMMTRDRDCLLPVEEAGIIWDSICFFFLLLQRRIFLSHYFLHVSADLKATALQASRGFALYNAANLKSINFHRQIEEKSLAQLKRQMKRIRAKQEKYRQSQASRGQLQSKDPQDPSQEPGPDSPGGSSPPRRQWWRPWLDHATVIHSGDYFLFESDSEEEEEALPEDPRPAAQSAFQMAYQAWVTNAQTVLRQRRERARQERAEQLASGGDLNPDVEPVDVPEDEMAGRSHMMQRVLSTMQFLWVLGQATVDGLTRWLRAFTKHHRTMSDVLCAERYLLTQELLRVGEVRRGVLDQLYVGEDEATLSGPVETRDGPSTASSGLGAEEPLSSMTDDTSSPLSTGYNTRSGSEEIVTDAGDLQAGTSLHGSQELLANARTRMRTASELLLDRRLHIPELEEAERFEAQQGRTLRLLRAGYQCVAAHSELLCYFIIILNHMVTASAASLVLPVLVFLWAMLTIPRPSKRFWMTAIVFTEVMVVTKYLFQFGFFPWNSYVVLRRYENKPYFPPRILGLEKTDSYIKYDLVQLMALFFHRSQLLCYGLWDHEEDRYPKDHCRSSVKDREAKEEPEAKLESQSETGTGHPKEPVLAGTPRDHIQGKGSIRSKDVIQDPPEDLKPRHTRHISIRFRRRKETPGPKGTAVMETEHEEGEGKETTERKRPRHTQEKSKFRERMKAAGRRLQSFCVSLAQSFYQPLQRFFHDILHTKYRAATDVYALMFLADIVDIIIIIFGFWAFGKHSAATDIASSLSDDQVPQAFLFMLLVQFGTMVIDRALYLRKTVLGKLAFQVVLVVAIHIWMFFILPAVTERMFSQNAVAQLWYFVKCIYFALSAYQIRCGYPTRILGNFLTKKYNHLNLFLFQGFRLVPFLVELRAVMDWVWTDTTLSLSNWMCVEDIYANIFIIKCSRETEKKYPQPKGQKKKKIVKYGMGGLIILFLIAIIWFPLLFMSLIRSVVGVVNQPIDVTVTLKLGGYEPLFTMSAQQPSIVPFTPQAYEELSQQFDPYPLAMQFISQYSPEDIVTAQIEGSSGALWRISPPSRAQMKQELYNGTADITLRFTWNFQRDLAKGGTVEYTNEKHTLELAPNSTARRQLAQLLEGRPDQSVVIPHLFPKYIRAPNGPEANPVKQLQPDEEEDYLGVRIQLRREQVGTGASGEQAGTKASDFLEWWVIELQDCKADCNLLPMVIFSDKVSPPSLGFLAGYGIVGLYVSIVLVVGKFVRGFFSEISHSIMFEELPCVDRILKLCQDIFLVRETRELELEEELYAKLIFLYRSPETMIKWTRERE

Work on `Clc1cccc(Cl)c1CSc1nnc(-c2cnccn2)s1` [Yoda1] yielded an EC50 of 29.4 ± 1.25 µM.
